Tests used:
physchem = assay: physchem
Description: The solution speciation studies of complexes 1–4 were performed using UV-vis spectrophotometry and pH-potentiometry in the presence of 200 mM chloride ions.
(§1) Titrations were performed in a carbonate-free KOH solution (0.20 M). The exact concentration of HCl and KOH solutions was determined by pH-potentiometric titrations.
(§2) The path length (l) was usually 1 cm, and 2, 5, 20 or 50 mm cells were used occasionally. Equilibrium constants (proton dissociation, stability constants, conditional stability constants (K’7.4) for the formation of mim adducts) and the individual spectra of the species were calculated with the computer program PSEQUAD [55]. The spectrophotometric titrations were performed in aqueous solution of the complexes at 25.0 ± 0.1 °C at an ionic strength of 0.20 M (KCl). Spectrum of the solution of 200 μM complex upon addition of one or two equivalents of its own ligand or phen was also measured at pH 7.4. UV-vis spectra recorded for the complexes as a function of chloride concentrations or PTA (in case of the chlorido complexes) were used to investigate the co-ligand exchange processes at pH 7.4. […] In some cases, the measurements were performed in the presence of 1–2% (Cl^−/PTA exchange reactions) or 6–8% (v/v) (interaction of mim with complexes 2, 4) DMSO.

[1] = test system: Colo 320 multidrug resistant human colonic adenocarcinoma cell line; assay: MTT cytotoxicity assay, Colo 320; format: cell-based; conditions: for IC50: 72 h, MTT; for S.I. MRC-5/Colo 320: ratio of the indicated IC50 values
Description: (§3) Human colonic adenocarcinoma cell lines Colo 205 doxorubicin-sensitive (ATCC-CCL-222) and Colo 320/MDR-LRP multidrug resistant expressing ABCB1 (MDR1)-LRP (ATCC-CCL-220.1) were purchased from LGC Promochem (Teddington, UK). […] Cell lines were incubated at 37 °C, in a 5% CO2, 95% air atmosphere. The semi-adherent human colon cancer cells were detached with Trypsin-Versene (EDTA, Sigma, Steinheim, Germany) solution for 5 min at 37 °C. MRC-5 human embryonal lung fibroblast cell lines (ATCC CCL-171) were purchased from LGC Promochem. […] The cell lines were incubated at 37 °C, in a 5% CO2, 95% air atmosphere.
(§4) In the study MRC-5 non-cancerous human embryonic lung fibroblast and human colonic adenocarcinoma cell lines (doxorubicin-sensitive Colo 205 and multidrug resistant Colo 320 colonic adenocarcinoma cells) were used to determine the effect of compounds on cell growth. The effects of increasing concentrations of compounds on cell growth were tested in 96-well flat-bottomed microtiter plates. The stock solutions of the compounds were prepared in DMSO, and in the final samples the DMSO content was always lower than 1%. The compounds were diluted in a volume of 100 μL of medium.
(§5) In case of the colonic adenocarcinoma cells, the two-fold serial dilutions of compounds were prepared in 100 μL of RPMI 1640, horizontally. The semi-adherent colonic adenocarcinoma cells were treated with Trypsin-Versene (EDTA) solution. They were adjusted to a density of 1 × 10^4 cells in 100 μL of RPMI 1640 medium, and were added to each well, with the exception of the medium control wells. The final volume of the wells containing compounds and cells was 200 μL.
(§6) The culture plates were incubated at 37 °C for 72 h; at the end of the incubation period, 20 μL of MTT (Sigma) solution (from a stock solution of 5 mg/mL) were added to each well. After incubation at 37 °C for 4 h, 100 μL of sodium dodecyl sulfate (SDS) (Sigma) solution (10% in 0.01 M HCl) were added to each well and the plates were further incubated at 37 °C overnight. Cell growth was determined by measuring the optical density (OD) at 540/630 nm with Multiscan EX ELISA reader (Thermo Labsystems, Cheshire, WA, USA). […] Curves were fitted by Prism software (GraphPad Software Inc., San Diego, CA, USA) using the sigmoidal dose-response model (comparing variable and fixed slopes). The IC50 values were obtained from at least 3 independent experiments.

[2] = test system: Colo 205 chemo-sensitive human colonic adenocarcinoma cell line; assay: MTT cytotoxicity assay, Colo 205; format: cell-based; conditions: for IC50: 72 h, MTT; for S.I. MRC-5/Colo 205: ratio of the indicated IC50 values
Description: as §3, §4, §5, §6

[3] = test system: MRC-5 normal human embryonal lung fibroblast cells; assay: MTT cytotoxicity assay, MRC-5; format: cell-based; conditions: 72 h
Description: as §3, §4, §5, §6

[4] = biological target: ABCB1 (P-glycoprotein) efflux pump (Homo sapiens, UniProt P08183); assay: Rhodamine 123 uptake/retention fluorescence assay (flow cytometry) in Colo 320 cells
Description: It is important to note, that the resistance of this cell line is primarily mediated by the overexpression of the ABC-transporter P-glycoprotein, which pumps out xenobiotics from the cytosol. […] This dye is membrane-permeable and is rapidly taken up by the cells; therefore, it can be effectively used for the screening of efflux pump inhibiting compounds. […] Then the fluorescence accumulation ratios (FAR) were calculated (Figure 1) according to the equation given in the Materials and Methods section. Verapamil was used as a reference inhibitor compound.
This fluorescence-based detection system uses verapamil (a first-generation, competitive EPI) as reference inhibitor. […] The tested compounds were added at different concentrations (2 and 20 µM; from 1 and 10 mM stock solutions, respectively) and the samples were incubated for 10 min at room temperature.
The parameters evaluated from flow cytometric experiments are forward scatter count (FSC, provides information about cell size); side scatter count (SSC, proportional to cell granularity or internal complexity); mean fluorescence of the cells (FL-1) and the computed FAR and FAR quotients (Table S1).

[5] = test system: HeLa 229 human cervix carcinoma cells; assay: MTT cytotoxicity in HeLa 229 cells (maximum non-toxic concentration); conditions: 48 h
Description: (§8) HeLa 229 cells (ATCC) and Vero cells (ATCC) were cultured in minimal essential medium (MEM) (Sigma, Steinheim, Germany) with Earle salts supplemented with 10% heat-inactivated fetal bovine serum (FBS) (Gibco; ThermoFisher Scientific, Inc., Waltham, MA, USA), 2 mM L-glutamine, 1× non-essential amino acids, 8 mM HEPES, 25 μg/mL gentamycin and 1 µg/mL fungisone. The cells were incubated for 1 h at room temperature to reduce the edge effect and then overnight at 37 °C, 5% CO2 to obtain a 90% confluent cell layer.
(§9) The density of cells was 4 × 10^4 cells/well in 100 µL of MEM with Earle salts supplemented with 10% heat-inactivated FBS, 2 mM L-glutamine, 1× MEM vitamins, 1× non-essential amino acids, 0.005% Na-pyruvate, 25 µg/mL gentamycin, 1 µg/mL fungisone). The plates were incubated for 1 h room temperature and then overnight at 37 °C, 5% CO2. Next day, when the cells reached a ~90% confluency, the medium was supplemented with the serial 2-fold dilutions of the complexes in three parallel wells for each concentration. […] After 24 h incubation for Vero cells and 48 h incubation for HeLa cells, 10 µL of the MTT (Sigma, Steinheim, Germany) labelling reagent (final concentration 0.5 mg/mL) was added to each well and the plate was incubated for 4 h at 37 °C, 5% CO2. After the incubation, 100 µL of the solubilisation solution (10% SDS in 1 M HCl) was added into each well, and the plate was allowed to stand overnight in the incubator at 37 °C, 5% CO2.

Vero cells = assay: MTT cytotoxicity in Vero cells (maximum non-toxic concentration); conditions: 24 h
Description: The antiviral effect of complexes against HSV-2 was screened using Vero cells (originally isolated from kidney epithelial cells) to host the growing viruses.
as §8, §9

[6] = test system: Enterococcus faecalis ATCC 29212; assay: MIC determination (CLSI broth microdilution); format: cell-based; conditions: Gram-positive, ATCC 29212, 18 h
Description: (§7) Wild-type Escherichia coli K-12 AG100 strain [argE3 thi-1 rpsL xyl mtl Δ(gal-uvrB) supE44] expressing the AcrAB TolC EP at its basal level and Klebsiella pneumoniae ATCC 49,619 Gram-negative strains were studied in the experiments. Staphylococcus aureus ATCC 43,300 methicillin-resistant (MRSA) strain and Enterococcus faecalis ATCC 29,212 strain were used as Gram-positive strains in the assays. MIC values of the complexes were determined in 96-well plates based on the Clinical and Laboratory Standard Institute guidelines (CLSI guidelines). The stock solutions of the compounds (dissolved in DMSO using 10 mM concentration) were diluted in 100 μL of Mueller Hinton Broth. Then 10^−4 dilution of an overnight bacterial culture in 100 μL of medium was added to each well, with the exception of the medium control wells.

[7] = test system: Staphylococcus aureus ATCC 43300 methicillin-resistant (MRSA); assay: MIC determination (CLSI broth microdilution); format: cell-based; conditions: Gram-positive, MRSA ATCC 43300, 18 h
Description: as §7

[8] = test system: Klebsiella pneumoniae ATCC 49619; assay: MIC determination (CLSI broth microdilution); format: cell-based; conditions: Gram-negative, ATCC 49619, 18 h
Description: as §7

[9] = test system: Escherichia coli K-12 AG100; assay: MIC determination (CLSI broth microdilution); format: cell-based; conditions: Gram-negative, AG100, 18 h
Description: as §7

[10] = Solution stability and speciation (UV-vis, 1H-NMR, pH-potentiometry); conditions: PBS’, pH 7.4, 2% DMSO, up to 24 h
Description: In order to confirm our prediction, time-dependent UV-visible (UV-vis) spectra were recorded for complexes 5–8 at pH 7.4 in aqueous solution (in modified phosphate buffered saline (PBS) buffer—PBS’) and in Eagle’s minimum essential medium (EMEM) used for the cytotoxicity studies in the presence of 2% (v/v) dimethyl sulfoxide (DMSO). […] Additionally, ^1H-NMR spectra were recorded for more water-soluble complexes 6–8.
In order to compare the stability of 1 and 3 at physiological pH, a serial dilution was made and UV-vis spectra were recorded in a wide concentration range (10 μM–3 mM) (Figure S10).
as §1, §2
^1H-NMR stability studies were carried out on a Bruker Avance III HD 500 MHz instrument. All ^1H-NMR spectra were recorded on samples containing 10% (v/v) D2O with the WATERGATE water suppression pulse scheme using DSS internal standard. Stability of complexes 6–8 was checked over time by ^1H-NMR spectroscopy at 500 μM in PBS’ or in EMEM (with 10% (v/v) DMSO-d6).

Chain of ABCB1 (P-glycoprotein) efflux pump (P08183 whole entry): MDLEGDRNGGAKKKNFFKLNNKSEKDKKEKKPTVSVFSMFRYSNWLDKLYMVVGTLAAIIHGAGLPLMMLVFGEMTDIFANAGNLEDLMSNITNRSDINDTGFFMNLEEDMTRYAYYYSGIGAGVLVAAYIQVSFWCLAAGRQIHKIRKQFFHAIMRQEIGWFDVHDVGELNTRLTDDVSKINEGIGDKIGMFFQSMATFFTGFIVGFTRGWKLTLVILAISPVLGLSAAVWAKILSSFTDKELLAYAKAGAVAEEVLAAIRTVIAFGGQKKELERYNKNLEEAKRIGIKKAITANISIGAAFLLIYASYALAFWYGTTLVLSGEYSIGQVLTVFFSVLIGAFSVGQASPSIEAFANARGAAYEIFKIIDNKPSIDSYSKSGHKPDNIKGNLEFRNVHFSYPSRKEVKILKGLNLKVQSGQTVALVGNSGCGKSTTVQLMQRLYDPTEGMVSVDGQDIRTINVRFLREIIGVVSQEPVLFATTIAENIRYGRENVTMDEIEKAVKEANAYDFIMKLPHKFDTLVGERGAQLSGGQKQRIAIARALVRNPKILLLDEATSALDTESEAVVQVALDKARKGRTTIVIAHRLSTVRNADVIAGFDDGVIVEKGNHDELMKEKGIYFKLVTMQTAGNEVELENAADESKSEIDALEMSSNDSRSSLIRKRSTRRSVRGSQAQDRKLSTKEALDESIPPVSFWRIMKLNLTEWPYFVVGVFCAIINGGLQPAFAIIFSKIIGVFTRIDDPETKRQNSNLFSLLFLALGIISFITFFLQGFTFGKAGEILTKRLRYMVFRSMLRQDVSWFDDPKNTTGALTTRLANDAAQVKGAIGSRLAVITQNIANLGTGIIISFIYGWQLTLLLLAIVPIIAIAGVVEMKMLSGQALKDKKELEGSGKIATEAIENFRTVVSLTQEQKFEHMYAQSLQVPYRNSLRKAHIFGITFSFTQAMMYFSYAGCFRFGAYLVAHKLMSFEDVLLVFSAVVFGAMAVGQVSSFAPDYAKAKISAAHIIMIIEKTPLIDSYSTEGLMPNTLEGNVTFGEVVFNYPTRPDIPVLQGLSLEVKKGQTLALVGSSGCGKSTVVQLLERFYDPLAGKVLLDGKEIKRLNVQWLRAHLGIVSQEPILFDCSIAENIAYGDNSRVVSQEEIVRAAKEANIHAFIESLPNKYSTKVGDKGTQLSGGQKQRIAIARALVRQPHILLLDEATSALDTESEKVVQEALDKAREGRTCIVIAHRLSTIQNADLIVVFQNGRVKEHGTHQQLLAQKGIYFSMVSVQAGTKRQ

Compound	IC50 [1] [µM]	S.I. MRC-5/Colo 320 [1]	IC50 [2] [µM]	S.I. MRC-5/Colo 205 [2]	IC50 [3] [µM]	MIC E. faecalis [6] [µM]	MIC S. aureus [7] [µM]	MIC K. pneumoniae [8] [µM]	MIC E. coli [9] [µM]	further results
On1ccc2ccccc2c1=S [HHiQT, 2-hydroxyisoquinoline-1(2H)-thione]	–	–	–	–	–	–	–	–	–	pKa (physchem): 4.63 ± 0.08
Cc1ccc(C(C)C)cc1.[Cl-].[O-]c1c(I)cc(Cl)c2cccnc12.[Ru+2] [complex 5]	13.7 ± 0.85	0.21	21 ± 2.4	0.14	2.95 ± 0.71	12.5	25	>100	>100	FAR fluorescence accumulation ratio ([4]; Colo 320, 2 μM): 6.19; FAR quotient (FAR related to that of 20 μM verapamil) ([4]; Colo 320, 2 μM): 128.7%; FSC forward scatter count ([4]; Colo 320, 2 μM): 1917; SSC side scatter count ([4]; Colo 320, 2 μM): 840; FAR fluorescence accumulation ratio ([4]; Colo 320, 20 μM): 3.66; FAR quotient (FAR related to that of 20 μM verapamil) ([4]; Colo 320, 20 μM): 76.0%; FSC forward scatter count ([4]; Colo 320, 20 μM): 1950; SSC side scatter count ([4]; Colo 320, 20 μM): 877; FL-1 mean fluorescence of the cells ([4]; Colo 320, rhodamine 123, 2 μM): 32.7; FL-1 mean fluorescence of the cells ([4]; Colo 320, rhodamine 123, 20 μM): 19.3; FAR value ([4]; Colo 320, tested at 2 μM and 20 μM): above 2; maximum non-toxic concentration, HeLa 229 [5]: 25 µM; concentrations at which maximum cytotoxicity was observed, Vero (Vero cells): 12.5 to 100 µM; maximum non-toxic concentration, Vero (Vero cells): 6.25 µM; stability in PBS’ at pH 7.4, time-dependent UV-vis spectra [10]: No characteristic UV-vis spectral changes within 24 h
N.N.[Cl][Pt][Cl] [cisplatin, reference compound]	5.58 ± 0.7	0.16	29.8 ± 1.2	0.03	0.88 ± 0.09	>100	>100	>100	>100	–
Cc1ccc(C(C)C)cc1.[Cl][Ru]([Cl])[PH]12CN3CN(CN(C3)C1)C2 [RAPTA-C, [Ru(η^6-p-cymene) (PTA)Cl2], reference compound]	> 100	–	> 100	–	> 100	>100	>100	>100	>100	–

From publication PMC8226722, “Comparison of Solution Chemical Properties and Biological Activity of Ruthenium Complexes of Selected β-Diketone, 8-Hydroxyquinoline and Pyrithione Ligands” (Pharmaceuticals, 2021)
